As a reminder, the T/C is the result in the treated group divided by that in the control group, in per cent.

These results are taken from ChEMBL document CHEMBL1129092, “Structure-activity relationship study on N-glycosyl moieties through model building of DNA and ellipticine N-glycoside complex” (1996).

Assay [1] is filed under the species Mus musculus. The experiment in a line: Compound was tested for antitumor activity against L1210 in mice; Active. The assay is classed as functional, organism-based.
For a further assay, the system named is L1210. The experiment in a line: Antitumor activity against L1210 in mice, after ip administration at 30 mg/kg for 5 consecutive days, expressed as average % of life time in 6 mice, treated mice/control. In kind it is functional, Mus musculus. As to conditions: route intraperitoneal.
The species entered for assay [2] is Mus musculus. The experiment in a line: Compound was tested for antitumor activity against L1210 in mice; Inactive. The assay is classed as functional, organism-based.

Activity calls are given as the source filed them. The rule behind the calls is not given here.

As to `Cc1c2cc[n+]([C@@H]3OC[C@H](O)[C@H](O)[C@H]3O)cc2c(C)c2c1[nH]c1ccc(O)cc12.[Br-]`, the “Activity Score” value in the assay listed under Mus musculus [1] is “Active”. The compound also yielded a T/C in the assay on L1210 of more than 960%.
For `CO[C@H]1CO[C@@H]([n+]2ccc3c(C)c4[nH]c5ccc(O)cc5c4c(C)c3c2)[C@H](O)[C@H]1O.[Br-]`, in that order: “Active” and 167%.
For `CO[C@@H]1[C@@H](O)[C@H]([n+]2ccc3c(C)c4[nH]c5ccc(O)cc5c4c(C)c3c2)OC[C@@H]1O.[Br-]`, in that order: “Active” and 169%.
Consider `CO[C@@H]1[C@@H](O)[C@@H](O)CO[C@H]1[n+]1ccc2c(C)c3[nH]c4ccc(O)cc4c3c(C)c2c1.[Br-]`, for which, in the assay listed under Mus musculus [2], the “Activity Score” value is “inactive”. The T/C in the assay with L1210 came to 123%.
